Reference: patent publication US5552267A, “Solution for prolonged organ preservation” (priority 1994, dated 1996)
“Also recorded” adds a separate entry of the source. Where a SMILES comes first, the peptide text is derived from it.

Columns and labels:
[1] = system: heart; details: in vivo; cited from earlier work
[2] = system: heart; assay: heterotopic rat cardiac transplant, cAMP series, graft survival/score; format: in vivo, rat (male Sprague-Dawley); details: 12 h in LR
From the text: Preservation solutions included lactated Ringer's (LR) solution Baxter, Edison, N.J.), or LR supplemented with rolipram ZK 62 711, Schering AG, Berlin, Germany), indolidan LY195115, Lilly Research Laboratories, Indianapolis, Ind.), sodium butyrate, 8-bromoadenosine, 8-bromoadenosine 3',5'monophosphate (8-Br-cAMP; Sigma Chemical Co., St. Louis, Mo.), the Rp -isomer of adenosine 3',5'monophosphorothioate (Rp -cAMPS; Biolog, La Jolla, Calif.), the Sp isomer of adenosine 3',5'monophosphorothioate (Sp -cAMPS; Biolog), and N^6,O^2' -dibutyryl adenosine 3',5'monophosphate sodium (db-cAMP; Aldrich, Milwaukee, Wis.). Components were combined within 4 hrs of donor cardiectomy, and preservation solutions were kept at 4° C. University of Wisconsin solution (UW)(2-4 was purchased from Dupont (Wilmington, Del.).
Donor Cardiectomy. Male Sprague-Dawley rats (350-450 grams, Camm Research, Wayne, N.J.) were anesthetized, heparinized (1000 units of heparin given intravenously), and the donor heart removed in the following manner; a midline incision was performed, followed by rapid cardioplegic arrest with 5 ml of cold (4° C.), high potassium solution (NACl, 0.9%, and KCl, 40 mEq/L). The heart was maintained at 4° C. throughout the harvest procedure by the application of a cold saline soaked gauze over its surface. […] The aortic root was flushed with ≈15 ml of the cold preservation solution until the coronary arteries became visibly clear, and the heart remained in the cold storage solution for the indicated duration until the time of transplantation.
Heterotopic Transplant. The same breed/size of rat was used, and similarly anesthetized, but not given heparin. A midline abdominal incision was made, and the infrarenal aorta and vena cava were occluded with a side-biting vascular clamp and longitudinal incisions were made in each vessel. The donor heart was removed from the preservation solution and kept moist with saline-soaked gauze. […] Blood flow was restored to the graft (by removal of the clamp) exactly one hour after removal from the cold preservation solution. […] Ten minutes after removal of the cross-clamp, an electrocardiogram was taken (Grass Polygraph, Quincy, Mass.) and the heart was judged by the same blinded investigators throughout based on the presence/absence of regular contractions and a transplant score (0-5, worst-best, respectively) employing the following criteria: contraction (poor=0, average=1, vigorous=2), tissue turgor (hard=0, average=1, soft=2), and color (dusky=0, pink=1). […] The heterotopic cardiac transplant experiments performed in these studies were done by a single surgeon after establishment of this model and acquisition of surgical expertise, with control and experimental groups interspersed throughout the study period to prevent a time-dependent bias pertaining to surgical skills.
Statistics. Graft survival data and transplant scores were analyzed using the Kruskal-Wallis non-parametric analysis of variance (38). Comparisons of individual treatments were performed using the procedure described by Dunn (39). In addition, the effect of db-cAMP on the time-course of graft failure was quantified by multivariate logistic regression. Graft myeloperoxidase data, microsphere data, and cAMP/adenylate cyclase/phosphodiesterase data from experiments with cultured vascular smooth muscle cells were analyzed by t-tests when 2 treatments were performed or by analysis of variance when 3 or more treatments were performed. In the latter case, post-hoc comparison of treatment groups were tested using Tukey's procedure. Values are expressed as means ±SEM, with a p <0.05 considered statistically significant.

[3] = system: cGMP-dependent protein kinase; details: relative to cGMP; cited from earlier work
[4] = system: heart; assay: heterotopic rat cardiac transplant, nitric oxide series, graft survival/score; format: in vivo, rat (male Sprague-Dawley); details: 12 h in LR
From the text: Male Sprague-Dawley rats (350 grams, Camm Research, Wayne, N.J.) were used, and harvest, preservation, and transplantation procedures performed as described^8. Preservation solutions included lactated Ringer's (LR) solution (Baxter, Edison, N.J.), or LR supplemented with nitroglycerin (DuPont, Wilmington, Del.), sodium nitroprusside (Roche Laboratories, Nutley, N.J.), N^G -monomethyl-L-arginine (L-NMMA; Chembiochem, Salt Lake City, Utah), L-arginine (Sigma Chemical Co., St. Louis, Mo.), or 8-bromoguanosine3',5'monophosphate (8-Br-cGMP; Sigma). Components were combined within 4 hrs of donor cardiectomy, and preservation solutions were kept at 4° C. All of these solutions were at the pH of LR (6.6). University of Wisconsin solution (UW) was purchased from Dupont. […] Ten minutes after removal of the cross-clamp, an electrocardiogram was taken (Grass Polygraph, Quincy, Mass.) and the heart was judged by the same blinded investigators throughout based on the presence/absence of regular contractions and a transplant score (0-5, worst-best, respectively) employing the following criteria: contraction (poor=0, average=1, vigorous=2), tissue turgor (hard=0, average=1, soft=2), and color (dusky=0, pink=1).
Graft survival data was analyzed by contingency analysis (chi-square). Transplant scores, microsphere perfusion, myeloperoxidase, NO synthase, and platelet serotonin release data were analyzed using ANOVA for unpaired variables with the Tukey test used to discriminate significant differences between group means. Values are expressed as means ±SEM, with a p<0.05 considered statistically significant.

[5] = system: lung; assay: orthotopic rat left lung transplantation, cGMP series (hemodynamics, oxygenation, recipient survival); format: in vivo, rat (male Lewis); details: 6 h in EC
Description: Orthotopic rat left lung transplantation was accomplished using inbred male Lewis rats (250-300 gms), using a modification of a previously described technique^29. The donor rat was anesthetized and heparinized (500 U intravenously), and endotracheal intubation was performed by inserting a 16 gauge angiocatheter into the trachea using blunt cervical dissection, after which the rat was ventilated with room air at a constant rate (100 breaths/minute) and tidal volume (2.5 ml), using a Harvard rodent ventilator. […] The pulmonary artery (PA) and pulmonary vein (PV) were divided, the bronchus ligated with the lung partially inflated and then divided, and the lung removed. The vascular stumps were each pulled through a small plastic cylinder, and a lip of vessel was turned back around the edge and secured in place with a suture to form a "cuff." A small plastic cylinder was inserted into the bronchial stump and secured, and the lung was then wrapped in gauze and submerged in cold preservation solution for the desired interval.
The recipient rat (gender/size/strain-matched) was similarly anesthetized and intubated (ventilated with 100% oxygen), but not heparinized. A left thoracotomy was performed, the hilum was dissected, and the left bronchus, PA, and PV were isolated, cross-clamped, divided and the native lung was removed from the field. The PA and PV stumps were rinsed with heparinized saline to remove any clot. The donor lung was brought onto the surgical field, and the cylinder (bronchus) and cuffs (PA and PV) were connected rapidly to their respective structures with a simple staying suture. This cuff technique permitted rapid approximation of donor and recipient tissues with no contact of a foreign substance with the luminal vascular surface. The hilar cross-clamp was released, re-establishing blood flow, and the bronchus tie was removed, enabling gas exchange. A snare was then passed around the right PA, and a Millar catheter (2F; Millar Instruments,Houston, Tex.) was introduced through a small hole (surrounded by a pursestring) into the main PA; similarly, a Millar catheter was introduced into the left atrium (LA). A flow probe (Transonics, Ithaca, N.Y.) was then placed around the main PA. Arterial blood gas sampling performed via the left femoral artery.
Online hemodynamic monitoring was accomplished using MacLab and a Macintosh IIci computer. The hemodynamic parameters that were measured included PA pressure (mm Hg), blood flow (ml/min), LA pressure (mm Hg), as well as arterial oxygen tension (mm Hg) during inspiration of 100% oxygen; pO2 was analyzed with a model ABL-2 dissolved gas analyzer (Radiometer, Copenhagen, Denmark). Pulmonary vascular resistances (PVRs) were calculated as [mean PA pressure-LA pressure]/PA flow. The native lung supported the recipient during the period of warm ischemia (the period during which the donor lung was removed from cold preservation until the time of reperfusion, <10 min. in all instances), but immediately following rapid hemodynamic instrumentation and acquisition of baseline measurements, the native (right) PA was then ligated, and serial measurements (representative solely of the transplanted lung) were taken every five minutes for 30 minutes. Because the native lung was effectively removed from the circulation by ligation of the right PA, these measurements represent function of the transplanted lung. Recipient death was identified by the cessation of cardiac mechanical activity observed through the thoracotomy.
Preservation solutions were freshly made and coded by a technician not otherwise involved in the experiments, according to a general plan which included both control and experimental groups. […]

[6] = system: nitric oxide production in heart; assay: direct measurement of coronary vascular and endocardial NO with porphyrinic microsensor; design: species or system rat
Description: Direct measurement of coronary vascular and endocardial nitric oxide synthesis were made with a porphyrinic microsensor^13 using differential pulse voltammetry or amperometry. Rat hearts were explanted and preserved as described above, and studied fresh (no preservation/transplantation) or after hypothermic preservation in lactated Ringer's (LR) solution, heterotopic transplantation, and 10 minutes of reperfusion. The coronary vasculature was flushed free of blood with LR followed by 4 ml of LR supplemented with L-Arg (2 mM) and bradykinin ([…], Sigma), which was recycled (1 ml/min) through the coronary vasculature by flushing down the cross-clamped aortic root. Aliquots of perfusate were immediately transferred to an anaerobic environment for measurements and compared to an aqueous nitric oxide reference. Differential pulse voltammograms were obtained using a sensor (working electrode), saturated calomel electrode reference, and platinum wire-auxiliary electrode, with a pulse amplitude of 40 mV. Endocardial NO was measured by implanting the sensor in the septal endocardium of a freshly explanted or preserved/transplanted heart, and after the baseline stabilization, […] bradykinin was applied and NO release continuously monitored by amperometry at constant potential of 0.63 V.

[7] = system: nitric oxide at lung surface; assay: in vivo pulmonary NO with porphyrinic microsensor; design: species or system rat; details: during continued reperfusion; A23187 9.5 μM
Description: Measurements of nitric oxide concentrations in vivo were performed with a two electrode system using a porphyrinic sensor as a working electrode and a platinum wire as an auxiliary/reference electrode. The porphyrinic sensor with a flexible base was lowered onto the exposed surface of the lung using a micromanipulator. A small piezoelectric signal (mechanically generated current) was used to indicate that the sensor had made contact with the tissue surface. NO measurements were begun once the flexible sensor assumed an L-shaped configuration on the tissue surface and the platinum wire was connected to adjacent tissue. Continous amperometric (current-time) measurements were obtained at a constant potential of 0.68 V, during the period of warm ischemia (after the lung was sewn in place but not yet reperfused) and continously as the vascular cross-clamp was released and reperfusion initiated. Topical application of the calcium ionophore (A23187, 9.5 μM; Sigma) and superoxide dismutase (100 U/ml; Sigma) was applied as monitoring was continued.

[8] = system: cardiac graft vasculature; assay: perfusion of donor grafts by microspheres, nitric oxide series; format: in vivo, rat; details: 12 h preservation in LR
Description: Ten minutes after restoration of blood flow, 0.5 ml of 10 μm diameter microspheres (10^6 /ml) (E-Z Trac, Los Angeles, Calif.) was injected into the donor aortic root. Deposition of microspheres in ventricular tissue was assessed following alkaline hydrolysis, washing, and counting of microspheres as described^8, with results expressed as number of spheres per (40×) field per gram of ventricle. A minimum of ten fields were counted and the mean ±SEM is reported.

O=NO [acidified sodium nitrite, sodium nitrite]
effect in cardiac ischemia models [1]: blunt myocardial injury and neutrophil accumulation during reperfusion; also recorded: improve vascular function and outcome

Nc1ncnc2c1nc(Br)n2[C@@H]1O[C@@H]2COP(=O)(O)O[C@H]2[C@H]1O [8-Br-cAMP, 8-bromoadenosine 3'5'monophosphate]
concentration for optimal/maximal preservation [2]: 0.1 mM | effect on cardiac preservation [2]: prolonged graft survival | graft survival ([2]; 8-Br-cAMP 0.1 mM): 100% | fold less potent than cGMP in activating cGMP-dependent protein kinase [3]: 53 fold

N=C(NCCC[C@H](N)C(=O)O)N[N+](=O)[O-] [N^ω -nitro-L-arginine]
effect on graft preservation (words) [4]: blocked the beneficial effects of L-Arg

CCCC(=O)Nc1ncnc2c1ncn2[C@@H]1O[C@@H]2COP(=O)(O)O[C@H]2[C@H]1O [mb-cAMP, N^6 -monobutyryladenosine 3'5'monophosphate]
fold less potent than cGMP in activating cGMP-dependent protein kinase [3]: 313 fold

Nc1nc2c(nc(Br)n2[C@@H]2O[C@H](COP(=O)(O)O)[C@@H](O)[C@H]2O)c(=O)[nH]1 [8-bromoguanosine 5'monophosphate]
effect on lung preservation [5]: without effect

NC(N)=NCCC[C@H](NC(=O)[C@H](Cc1ccccc1)NC(=O)[C@@H]1CCCN1C(=O)[C@H](CO)NC(=O)[C@H](Cc1ccccc1)NC(=O)CNC(=O)[C@@H]1CCCN1C(=O)[C@@H]1CCCN1C(=O)[C@@H](N)CCCN=C(N)N)C(=O)O [bradykinin] (H-RPPGFSPFR-OH)
endocardial NO plateau following bradykinin challenge ([6]; freshly explanted heart): 0.67 ± 0.06 µM | endocardial NO plateau following bradykinin challenge ([6]; preserved (38 hrs) heart): 0.17 ± 0.05 µM

N=c1c[n+](N2CCOCC2)[n-]o1 [SIN-1]
effect in cardiac ischemia models [1]: improve vascular function and outcome

CNc1ccc2oc(C[C@H]3O[C@@]4(CC[C@H]3C)O[C@H]([C@H](C)C(=O)c3ccc[nH]3)[C@H](C)C[C@H]4C)nc2c1C(=O)O [A23187]
effect on decline in NO [7]: did not alter the decline in NO

Nc1nc2c(nc(Br)n2[C@@H]2O[C@H](CO)[C@@H](O)[C@H]2O)c(=O)[nH]1 [8-Br-guanosine]
effect on lung preservation [5]: without effect

CC1(C)C(=O)Nc2ccc(C3=NNC(=O)CC3)cc21 [indolidan]
effect on cardiac preservation [2]: uniformly enhanced preservation

CNC(=N)NCCC[C@H](N)C(=O)O [L-NMMA, N^G -monomethyl-L-arginine]
graft blood flow [8]: decreased blood flow | effect on NO levels ([6]; transplanted hearts): blocked further NO production | effect on graft preservation (words) [4]: blocked the beneficial effects of L-Arg | graft survival ([4]; NTG 0.1 mg/ml where added): 0% | effect on graft preservation (words) ([4]; listed as N^G -monomethyl-L-arginine): no survival of cardiac grafts; also recorded: poor preservation
